Measurements reported in patent publication US10266490B2, “Radioprotector compounds” (GEORGETOWN UNIVERSITY, priority 2012, dated 2019).

Tested on: C57BL/6 mice
Experiment: Survival after total body irradiation (TBI), mice
Format: in vivo, mouse
Protocol: Studies utilized Sprague-Dawley rats (age 12-16 weeks, weight 200±30 g) or C57BL/6 mice (6-8 weeks, ca. 20 g). Animals were administered DIM or carrier (physiological saline) by intraperitoneal injection at the doses and schedules indicated, subjected to total body irradiation using ^60Co γ-rays (0.96 Gy/min), and followed for survival up to 30 days. Mice that either appeared to be moribund or died were considered not to have survived.
For in vivo studies, animal survival was plotted using Kaplan-Meier statistics; and the survival curves were compared using the log-rank test. Other statistical comparisons were made using two-tailed t-tests.

## c1ccc2c(Cc3c[nH]c4ccccc34)c[nH]c2c1 [DIM, 3,3′-diindolylmethane]
  protection against TBI: similarly protected
